# Patent publication US4550186A, “Binuclear copper (II) carboxylates formed from amine-carboxyboranes” (Duke University, priority 1983, dated 1985)
# Tests used:
# [1] = target: thymidylate synthetase (Mus musculus, UniProt P07607); assay: In vivo thymidylate synthetase activity
# Method: CF1 male mice (~30 g) were implanted with 2×10^6 Ehrlich ascites tumor cells, intraperitoneally on Day 0. Compound I was suspended by homogenation in 0.05% polysorbate.80-water and administered intraperitoneally at 10 and 20 mg/kg for 9 days to determine its effectiveness for inhibition of tumor growth. Mice were sacrificed on Day 10, and the ascites fluid was collected from the peritoneal cavity. The volume and ascrit (packed cell volume) were determined for each animal and the percent inhibition of tumor growth was calculated. For the metabolic studies, mice were treated on Days 8 and 9 with 10 mg/kg of Compound I, intraperitoneally. […]
# Carbamyl phosphate synthetase activity was determined using the reaction medium of Kalman et al [Am. […] Citrulline formed from ornithine was measured at 490 nm by the method of Archibald [J. Biol. Chem., 156, 121 (1944)]. […] The ^14 CO2 generated in 15 min was trapped in 1M KOH and counted. Thymidylate synthetase activity was determined using a post-mitochondrial supernatant (9000 g×10 min) and 5 μCi of 5-^3 H-deoxyuridine monophosphate (14 Ci/mmol) according to the method of Kampf et al [ J. Med. Chem., 19, 903 (1976)]. ^14 C-Formate incorporation into purines was determined by the method of Spassova et al [Biochem. Pharmacol., 25, 923 (1976)] using 0.5 μCi of ^14 C-formic acid (52.0 mCi/mmol). […] The Rf value for xanthine monophosphate was scraped and counted. […]
# [2] = tested on: ribonucleic acid synthesis of Ehrlich ascites cells; assay: In vitro whole cell incorporation: ribonucleic acid synthesis; type: cell-based, mouse; conditions: preliminary, 60 min, read-out: ID50, ribonucleic acid synthesis
# Method: CF1 male mice (~30 g) were implanted with 2×10^6 Ehrlich ascites tumor cells, intraperitoneally on Day 0. Compound I was suspended by homogenation in 0.05% polysorbate.80-water and administered intraperitoneally at 10 and 20 mg/kg for 9 days to determine its effectiveness for inhibition of tumor growth. Mice were sacrificed on Day 10, and the ascites fluid was collected from the peritoneal cavity. The volume and ascrit (packed cell volume) were determined for each animal and the percent inhibition of tumor growth was calculated. For the metabolic studies, mice were treated on Days 8 and 9 with 10 mg/kg of Compound I, intraperitoneally. The animal was sacrificed on Day 10 and the ascites fluid harvested. The in vitro metabolic studies were performed at […] final concentration of Compound I.
# In vitro incorporation of ^3 H-thymidine, ^3 H-uridine, or ^3 H-leucine was determined using 10^6 Ehrlich ascites cells, 1 μCi labeled precursor, minimum essential medium and varying final concentrations of drug from 0.25-1.0 mM. The tubes were incubated at 37° C. for 60 min and inactivated by trichloroacetic acid. The acid insoluble labeled deoxyribonucleic acid was collected on GF/F glass filter discs and ribonucleic acid and protein were precipitated on nitrocellulose filters by vacuum suction. Results are expressed as dpm of incorporated precursor per hour per 10^6 cells.
# Sequence of thymidylate synthetase (P07607 whole entry): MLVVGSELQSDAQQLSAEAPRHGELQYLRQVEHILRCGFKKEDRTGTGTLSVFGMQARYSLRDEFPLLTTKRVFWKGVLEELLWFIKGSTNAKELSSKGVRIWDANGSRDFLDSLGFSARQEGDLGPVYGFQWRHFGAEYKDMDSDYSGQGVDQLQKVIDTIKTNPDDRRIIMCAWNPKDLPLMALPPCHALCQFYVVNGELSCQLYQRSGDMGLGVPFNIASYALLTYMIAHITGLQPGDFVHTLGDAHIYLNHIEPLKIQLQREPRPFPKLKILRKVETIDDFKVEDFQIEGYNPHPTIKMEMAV
substance,measurement,setting,value
{Cu[(CH3)3 N.BH2 CO2 ]2.(CH3)3 N.BH2 COOH} [Compound I],Thymidylate synthetase activity suppressed,[1],5%
same,Thymidylate synthetase activity,[1]; 10 mg/kg/day I.P. on Days 8 and 9,102 ± 9 % Control
same,IC50,[2],1820 µM
